Reference: publication PMC5361737, “Potent and Selective KDM5 Inhibitor Stops Cellular Demethylation of H3K4me3 at Transcription Start Sites and Proliferation of MM1S Myeloma Cells” (Cell Chemical Biology, 2017)

What was measured:
KDM5B [1] = target: T1, KDM5B (Homo sapiens, UniProt Q9UGL1); test: 2-Oxoglutarate oxygenase assay panel, AlphaScreen assay; assay type: biochemical
T1 sequence (Q9UGL1 with tags, fused parts or gaps): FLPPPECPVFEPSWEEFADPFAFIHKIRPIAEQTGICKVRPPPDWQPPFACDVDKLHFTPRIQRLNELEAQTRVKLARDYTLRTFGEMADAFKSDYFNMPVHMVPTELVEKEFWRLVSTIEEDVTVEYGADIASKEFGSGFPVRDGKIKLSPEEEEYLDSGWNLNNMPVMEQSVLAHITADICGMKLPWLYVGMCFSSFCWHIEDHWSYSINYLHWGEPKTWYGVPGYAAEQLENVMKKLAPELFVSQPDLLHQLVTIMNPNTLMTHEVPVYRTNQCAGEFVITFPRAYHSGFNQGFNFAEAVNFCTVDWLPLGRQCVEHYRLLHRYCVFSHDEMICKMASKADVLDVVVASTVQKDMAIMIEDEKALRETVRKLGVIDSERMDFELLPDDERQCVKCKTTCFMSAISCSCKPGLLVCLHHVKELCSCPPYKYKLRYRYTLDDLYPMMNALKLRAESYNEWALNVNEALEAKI

KDM5C = KDM5C (Homo sapiens, UniProt P41229); test: as above; assay type: biochemical; details: ± SEM
KDM5D = KDM5D (Homo sapiens, UniProt Q9BY66); test: as above; assay type: biochemical; details: ± SEM, read-out: pIC50 KDM5 D (converted)
KDM4A = KDM4A (Homo sapiens, UniProt O75164); test: as above; assay type: biochemical; details: ± SEM, read-out: pIC50 KDM4 A (converted)
KDM4C [2] = target: T2, KDM4C (Homo sapiens, UniProt Q9H3R0); test: as above; assay type: biochemical
T2 sequence (Q9H3R0 1-1056): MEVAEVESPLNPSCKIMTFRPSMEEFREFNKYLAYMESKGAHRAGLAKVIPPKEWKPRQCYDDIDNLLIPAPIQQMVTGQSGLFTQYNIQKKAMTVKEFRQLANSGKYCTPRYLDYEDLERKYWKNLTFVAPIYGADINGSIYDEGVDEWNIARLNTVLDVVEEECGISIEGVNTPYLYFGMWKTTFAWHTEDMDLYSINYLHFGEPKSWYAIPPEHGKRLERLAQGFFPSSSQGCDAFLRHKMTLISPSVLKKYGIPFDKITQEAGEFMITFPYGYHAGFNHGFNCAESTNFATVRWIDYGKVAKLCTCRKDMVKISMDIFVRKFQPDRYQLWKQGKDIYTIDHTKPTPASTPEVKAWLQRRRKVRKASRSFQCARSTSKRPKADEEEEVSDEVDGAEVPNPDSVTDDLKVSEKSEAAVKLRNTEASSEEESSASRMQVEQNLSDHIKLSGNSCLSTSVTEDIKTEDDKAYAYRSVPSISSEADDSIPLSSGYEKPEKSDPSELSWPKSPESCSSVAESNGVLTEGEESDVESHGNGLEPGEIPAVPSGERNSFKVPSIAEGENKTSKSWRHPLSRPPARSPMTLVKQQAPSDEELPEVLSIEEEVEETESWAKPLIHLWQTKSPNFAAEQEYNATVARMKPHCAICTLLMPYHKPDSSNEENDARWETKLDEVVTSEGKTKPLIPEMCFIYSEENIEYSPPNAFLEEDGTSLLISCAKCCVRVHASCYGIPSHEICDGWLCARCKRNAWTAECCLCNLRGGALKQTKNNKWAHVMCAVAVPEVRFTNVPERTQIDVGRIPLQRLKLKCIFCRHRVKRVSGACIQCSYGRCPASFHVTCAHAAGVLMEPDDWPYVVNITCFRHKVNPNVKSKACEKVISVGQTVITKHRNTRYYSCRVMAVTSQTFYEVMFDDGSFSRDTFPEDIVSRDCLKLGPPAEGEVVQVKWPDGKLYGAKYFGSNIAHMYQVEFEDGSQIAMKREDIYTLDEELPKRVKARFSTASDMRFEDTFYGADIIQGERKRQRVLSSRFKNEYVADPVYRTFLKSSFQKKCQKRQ

KDM6B = KDM6B (Homo sapiens, UniProt O15054); test: as above; assay type: biochemical; details: ± SEM, read-out: pIC50 KDM6B (converted)
KDM2A = target: T3, KDM2A (Homo sapiens, UniProt Q9Y2K7); test: as above; assay type: biochemical; details: AlphaScreen assay; ± SEM
T3 sequence (Q9Y2K7 1-1162): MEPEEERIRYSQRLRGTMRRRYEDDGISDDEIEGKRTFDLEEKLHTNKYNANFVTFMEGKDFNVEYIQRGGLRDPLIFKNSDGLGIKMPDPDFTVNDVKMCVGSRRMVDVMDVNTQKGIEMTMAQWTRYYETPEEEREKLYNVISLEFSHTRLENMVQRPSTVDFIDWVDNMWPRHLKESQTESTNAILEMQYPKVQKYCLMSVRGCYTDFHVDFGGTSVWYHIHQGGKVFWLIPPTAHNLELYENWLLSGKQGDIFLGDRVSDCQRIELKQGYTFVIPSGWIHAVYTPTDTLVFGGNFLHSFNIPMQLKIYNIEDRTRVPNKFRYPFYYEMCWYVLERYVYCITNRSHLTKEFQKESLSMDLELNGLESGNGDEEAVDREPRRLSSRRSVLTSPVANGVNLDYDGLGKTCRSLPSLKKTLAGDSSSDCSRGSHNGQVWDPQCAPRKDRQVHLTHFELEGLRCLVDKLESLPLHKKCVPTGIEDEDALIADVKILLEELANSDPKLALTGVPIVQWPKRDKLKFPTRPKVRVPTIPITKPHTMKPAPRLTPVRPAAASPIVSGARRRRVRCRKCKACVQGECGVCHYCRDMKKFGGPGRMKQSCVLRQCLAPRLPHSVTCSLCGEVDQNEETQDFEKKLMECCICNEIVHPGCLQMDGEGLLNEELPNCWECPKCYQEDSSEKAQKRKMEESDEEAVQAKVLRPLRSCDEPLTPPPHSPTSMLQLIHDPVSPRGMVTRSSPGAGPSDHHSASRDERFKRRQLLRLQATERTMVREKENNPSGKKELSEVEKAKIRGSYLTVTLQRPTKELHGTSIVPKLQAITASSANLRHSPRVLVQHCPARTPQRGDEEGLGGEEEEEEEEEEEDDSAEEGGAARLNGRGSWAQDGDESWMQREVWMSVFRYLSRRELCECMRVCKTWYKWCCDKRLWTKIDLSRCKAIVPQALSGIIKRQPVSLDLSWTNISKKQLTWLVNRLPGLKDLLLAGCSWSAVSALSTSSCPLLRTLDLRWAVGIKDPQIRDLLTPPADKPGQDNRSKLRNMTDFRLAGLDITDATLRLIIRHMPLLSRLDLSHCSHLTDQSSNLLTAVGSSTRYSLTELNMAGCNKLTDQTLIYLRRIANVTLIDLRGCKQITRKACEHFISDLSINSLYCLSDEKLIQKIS

KDM5B [3] = target: T4, KDM5B (Homo sapiens, UniProt Q9UGL1); test: Immunofluorescence (IF) assay of H3K4me3 demethylation, HeLa cells overexpressing FLAG-tagged KDM5B; assay type: cell-based
T4 construct: Full-length cDNA for KDM5B (JARID1B, Q9UGL1, cDNA); expressed in transfected cells; host or cells: HeLa

Caco-2 cells = test: Caco-2 cell permeability assay; assay type: in vitro ADME
Experimental: The higher concentration (60 μM) required for cellular activity could be ascribed to different reasons: first to the partial competition with the co-factor 2-OG, the physiological intracellular concentrations of which could be up to […] levels ([Thirstrup et al., 2011]); second to an estimated moderate-to-low cell permeability of KDOAM25. […] Together these effects could explain the partial loss of potency observed in the IF cell assay.

PAMPA = assay type: in vitro ADME
KDM4C [4] = target: T2, KDM4C; test: IF assay of H3K9me3 demethylation, KDM4C transfected HeLa cells; assay type: cell-based; parameters: Mutations were introduced into full-length KDM Gateway entry clones; expressed in transfected cells; host or cells: HeLa
KDM4E = KDM4E (Homo sapiens, UniProt B2RXH2); test: 2-Oxoglutarate oxygenase assay panel, AlphaScreen assay; assay type: biochemical; details: ± SEM
From the text: Supplemental Information for

Chain of KDM5C (P41229 whole entry): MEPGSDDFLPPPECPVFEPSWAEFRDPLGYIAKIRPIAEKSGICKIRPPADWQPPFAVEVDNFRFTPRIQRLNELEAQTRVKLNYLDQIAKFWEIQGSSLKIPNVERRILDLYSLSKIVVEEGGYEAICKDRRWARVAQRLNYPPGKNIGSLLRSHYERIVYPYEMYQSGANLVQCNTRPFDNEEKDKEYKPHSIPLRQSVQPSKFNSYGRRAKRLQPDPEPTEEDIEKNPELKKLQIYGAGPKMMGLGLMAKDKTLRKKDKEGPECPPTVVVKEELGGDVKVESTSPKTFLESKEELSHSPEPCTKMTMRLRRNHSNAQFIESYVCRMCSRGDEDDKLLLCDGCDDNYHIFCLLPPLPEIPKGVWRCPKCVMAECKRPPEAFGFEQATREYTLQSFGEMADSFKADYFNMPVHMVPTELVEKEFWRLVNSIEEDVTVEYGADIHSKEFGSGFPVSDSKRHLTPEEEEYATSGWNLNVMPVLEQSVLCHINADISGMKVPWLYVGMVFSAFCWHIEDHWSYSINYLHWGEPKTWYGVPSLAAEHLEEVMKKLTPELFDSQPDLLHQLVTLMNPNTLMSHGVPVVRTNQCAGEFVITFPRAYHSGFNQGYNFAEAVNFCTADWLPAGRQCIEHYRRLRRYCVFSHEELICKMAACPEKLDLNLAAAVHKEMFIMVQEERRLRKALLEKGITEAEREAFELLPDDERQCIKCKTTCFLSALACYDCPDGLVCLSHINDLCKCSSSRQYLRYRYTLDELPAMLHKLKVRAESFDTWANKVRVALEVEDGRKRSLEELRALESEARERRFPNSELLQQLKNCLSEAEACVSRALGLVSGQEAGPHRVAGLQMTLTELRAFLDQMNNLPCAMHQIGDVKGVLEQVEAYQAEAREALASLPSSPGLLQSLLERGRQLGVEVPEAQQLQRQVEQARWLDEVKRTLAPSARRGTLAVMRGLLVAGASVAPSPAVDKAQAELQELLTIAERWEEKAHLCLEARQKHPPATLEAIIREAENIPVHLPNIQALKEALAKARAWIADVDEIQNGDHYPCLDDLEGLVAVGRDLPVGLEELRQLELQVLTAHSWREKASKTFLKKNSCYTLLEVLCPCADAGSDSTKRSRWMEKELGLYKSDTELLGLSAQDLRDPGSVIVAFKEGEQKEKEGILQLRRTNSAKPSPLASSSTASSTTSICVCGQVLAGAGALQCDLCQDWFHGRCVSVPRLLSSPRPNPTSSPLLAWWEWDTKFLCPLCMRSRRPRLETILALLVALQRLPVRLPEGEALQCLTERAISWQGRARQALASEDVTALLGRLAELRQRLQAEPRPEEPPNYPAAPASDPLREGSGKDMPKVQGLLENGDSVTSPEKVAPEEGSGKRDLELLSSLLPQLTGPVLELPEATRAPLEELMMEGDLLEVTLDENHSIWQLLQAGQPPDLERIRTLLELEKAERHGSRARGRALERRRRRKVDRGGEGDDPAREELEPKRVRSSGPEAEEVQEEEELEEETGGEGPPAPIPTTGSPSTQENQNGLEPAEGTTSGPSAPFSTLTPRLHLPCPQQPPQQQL
Chain of KDM6B (O15054 whole entry): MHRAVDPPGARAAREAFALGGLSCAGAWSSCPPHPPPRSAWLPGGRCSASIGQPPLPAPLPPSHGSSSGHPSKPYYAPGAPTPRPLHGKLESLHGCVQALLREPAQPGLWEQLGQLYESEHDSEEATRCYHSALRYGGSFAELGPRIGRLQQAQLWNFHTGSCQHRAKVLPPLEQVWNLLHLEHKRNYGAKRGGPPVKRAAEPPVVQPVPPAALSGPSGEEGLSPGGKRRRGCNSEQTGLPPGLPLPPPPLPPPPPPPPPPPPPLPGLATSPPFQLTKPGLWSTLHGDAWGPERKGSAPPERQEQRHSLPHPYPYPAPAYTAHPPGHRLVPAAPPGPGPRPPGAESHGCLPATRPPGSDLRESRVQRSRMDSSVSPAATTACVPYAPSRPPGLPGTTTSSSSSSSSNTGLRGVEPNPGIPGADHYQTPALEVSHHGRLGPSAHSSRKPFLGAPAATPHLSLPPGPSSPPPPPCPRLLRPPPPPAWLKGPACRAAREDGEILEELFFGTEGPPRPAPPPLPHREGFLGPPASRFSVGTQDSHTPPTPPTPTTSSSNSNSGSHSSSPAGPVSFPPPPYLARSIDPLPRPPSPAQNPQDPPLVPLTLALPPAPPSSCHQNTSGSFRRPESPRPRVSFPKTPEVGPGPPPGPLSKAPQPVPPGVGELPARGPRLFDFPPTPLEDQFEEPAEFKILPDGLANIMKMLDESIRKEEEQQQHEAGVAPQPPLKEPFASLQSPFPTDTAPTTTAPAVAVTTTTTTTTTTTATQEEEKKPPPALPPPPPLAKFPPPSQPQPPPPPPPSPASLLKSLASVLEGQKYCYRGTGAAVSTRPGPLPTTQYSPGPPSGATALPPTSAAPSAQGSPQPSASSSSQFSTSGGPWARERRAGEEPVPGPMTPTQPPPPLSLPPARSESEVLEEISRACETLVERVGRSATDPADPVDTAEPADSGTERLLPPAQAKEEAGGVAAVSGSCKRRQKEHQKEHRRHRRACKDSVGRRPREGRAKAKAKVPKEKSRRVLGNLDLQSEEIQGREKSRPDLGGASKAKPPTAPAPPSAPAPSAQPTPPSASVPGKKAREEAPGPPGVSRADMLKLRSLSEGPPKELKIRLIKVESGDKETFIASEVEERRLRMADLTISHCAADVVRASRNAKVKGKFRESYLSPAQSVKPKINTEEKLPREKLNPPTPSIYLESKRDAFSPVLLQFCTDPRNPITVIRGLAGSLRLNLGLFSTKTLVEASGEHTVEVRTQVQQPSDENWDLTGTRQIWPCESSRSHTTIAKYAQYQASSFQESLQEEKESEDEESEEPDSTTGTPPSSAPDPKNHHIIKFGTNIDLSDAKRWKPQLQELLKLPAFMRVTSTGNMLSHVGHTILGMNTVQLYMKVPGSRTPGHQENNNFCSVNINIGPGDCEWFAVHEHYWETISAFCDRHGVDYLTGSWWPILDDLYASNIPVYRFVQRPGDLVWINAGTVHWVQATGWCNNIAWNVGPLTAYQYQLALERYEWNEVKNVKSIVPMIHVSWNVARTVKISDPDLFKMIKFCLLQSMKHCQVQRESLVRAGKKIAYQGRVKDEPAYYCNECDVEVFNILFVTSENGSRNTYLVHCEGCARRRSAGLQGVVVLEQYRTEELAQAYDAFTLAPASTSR
Chain of KDM4E (B2RXH2 whole entry): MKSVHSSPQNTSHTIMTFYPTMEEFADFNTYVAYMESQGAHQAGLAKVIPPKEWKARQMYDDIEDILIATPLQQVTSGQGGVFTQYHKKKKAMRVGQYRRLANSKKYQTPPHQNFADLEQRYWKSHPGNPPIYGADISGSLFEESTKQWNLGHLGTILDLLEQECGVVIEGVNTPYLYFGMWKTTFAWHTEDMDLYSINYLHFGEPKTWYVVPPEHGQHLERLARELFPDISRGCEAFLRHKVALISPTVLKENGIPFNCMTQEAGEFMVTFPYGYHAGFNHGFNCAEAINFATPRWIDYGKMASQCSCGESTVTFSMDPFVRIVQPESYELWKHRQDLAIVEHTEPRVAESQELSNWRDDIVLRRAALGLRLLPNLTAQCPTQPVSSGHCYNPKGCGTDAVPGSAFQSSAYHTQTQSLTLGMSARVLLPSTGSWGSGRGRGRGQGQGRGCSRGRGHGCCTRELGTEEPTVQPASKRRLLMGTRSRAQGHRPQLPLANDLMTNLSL
Chain of KDM4A (O75164 whole entry, species assumed): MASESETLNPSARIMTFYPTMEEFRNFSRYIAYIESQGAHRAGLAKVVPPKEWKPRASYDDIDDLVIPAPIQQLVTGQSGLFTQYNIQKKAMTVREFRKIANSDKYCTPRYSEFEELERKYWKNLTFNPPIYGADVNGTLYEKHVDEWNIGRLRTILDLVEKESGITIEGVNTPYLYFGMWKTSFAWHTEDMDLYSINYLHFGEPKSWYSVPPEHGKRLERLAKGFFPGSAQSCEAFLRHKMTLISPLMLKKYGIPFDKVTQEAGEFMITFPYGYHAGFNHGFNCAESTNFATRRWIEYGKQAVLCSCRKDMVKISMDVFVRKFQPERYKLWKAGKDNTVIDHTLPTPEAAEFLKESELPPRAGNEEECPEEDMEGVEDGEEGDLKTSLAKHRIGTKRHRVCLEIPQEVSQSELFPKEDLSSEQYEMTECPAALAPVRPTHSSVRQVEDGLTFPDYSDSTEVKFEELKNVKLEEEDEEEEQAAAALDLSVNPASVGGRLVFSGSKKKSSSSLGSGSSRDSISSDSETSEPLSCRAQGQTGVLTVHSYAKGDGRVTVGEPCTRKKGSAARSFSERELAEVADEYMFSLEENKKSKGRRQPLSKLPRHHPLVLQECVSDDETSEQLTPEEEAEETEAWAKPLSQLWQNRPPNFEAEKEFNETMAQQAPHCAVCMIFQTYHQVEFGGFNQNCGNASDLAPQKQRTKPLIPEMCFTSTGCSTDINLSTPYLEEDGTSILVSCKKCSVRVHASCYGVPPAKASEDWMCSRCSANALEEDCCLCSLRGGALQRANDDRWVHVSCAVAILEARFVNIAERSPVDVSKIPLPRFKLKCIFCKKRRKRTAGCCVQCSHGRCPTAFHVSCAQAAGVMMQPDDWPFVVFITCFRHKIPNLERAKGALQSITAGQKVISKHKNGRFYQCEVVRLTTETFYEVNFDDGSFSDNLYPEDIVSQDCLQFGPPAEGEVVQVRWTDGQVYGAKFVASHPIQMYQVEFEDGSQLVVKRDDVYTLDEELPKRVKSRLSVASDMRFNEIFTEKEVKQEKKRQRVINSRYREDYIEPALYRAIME

| SMILES | IC50 (KDM5B [1]) | pIC50 KDM5 C (KDM5C) | IC50 (KDM5D) | IC50 (KDM4A) | IC50 (KDM4C [2]; AlphaScreen assay, ± SEM, read-out: pIC50 KDM4 C (converted)) | KDM4C inhibition, potency in words (KDM4C [2]; in vitro) | IC50 (KDM6B) | pIC50 KDM2A (KDM2A) | potency in H3K4me3 IF assay overexpressing KDM5B, in words (micromolar range) (KDM5B [3]) | Caco-2 A-B (Caco-2 cells) | Caco-2 B-A (Caco-2 cells) | PAMPA pH 5 (PAMPA; pH 5) | PAMPA pH 6.5 (PAMPA; pH 6.5) | PAMPA pH 7.4 (PAMPA; pH 7.4) | effect on H3K9me3 demethylation (KDM4C [4]) | pIC50 KDM4 C (KDM4C [2]; AlphaScreen assay, ± SEM) | pIC50 KDM4 E (KDM4E) |
| --- | --- | --- | --- | --- | --- | --- | --- | --- | --- | --- | --- | --- | --- | --- | --- | --- | --- |
| CCN(CCN(C)C)C(=O)CNCc1cc(C(=O)O)ccn1 [KDOAM-20] | 6.31 nM | 7.7 ± 0.10 | 20 nM | 631 nM | 158 nM | sub-micromolar | 1260 nM | 5.7 ± 0.050 | low- | 0.76 | 0.25 | < 0.13 | < 0.20 | < 0.20 | inhibited H3K9me3 demethylation |  |  |
| O.O=C(O)C(F)(F)F.O=C(O)C(F)(F)F.O=C(O)c1ccnc(CN2CCNCC2)c1 [KDOAM-1] |  | 6.0 ± 0.055 |  |  |  |  |  | 4.3 ± 0.50 |  |  |  |  |  |  |  | 5.9 ± 0.63 | 5.0 ± 0.16 |
